Laboratory results from patent US8415376B2, “Inhibitors of PI3 kinase” (Amgen Inc., priority 2008, dated 2013).

How the values were obtained:
mTOR = biological target: T1, mTOR (Homo sapiens, UniProt P42345); test: In vitro mTOR assay (Lanthascreen); format: biochemical; settings: average if run more than once
T1 construct: purchased Invitrogen (Carlsbad, Calif.)
From the text: The Invitrogen (Carlsbad, Calif.) mammalian target of rapamycin (mTOR) Lanthascreen assay can be used to quantitate mTOR kinase activity in an in vitro setting. Active mTOR phosphorylates eukaryotic translation initiation factor 4E binding protein 1 (4E-BP1) on residue threonine 46. This phosphorylation event can be detected with a phospho-specific terbium (Tb) labeled Ab, in turn bringing the Tb label in close proximity to the GFP tagged 4E-BP1 and allowing for time-resolved fluorescence resonance energy transfer (TR-FRET), which correlates 4E-BP1 phosphorylation levels with mTOR kinase activity.
Enzyme reaction buffer can be prepared in deionized water containing 50 mM HEPES (pH 7.5), 0.01% Polysorbate 20, 1 mM EGTA, and 10 mM MnCl2.
Dilutions of the compound to be tested can be prepared in 96-well polypropylene plates (Fisher Scientific, Waltham, Mass.). One row represents a 10-point dose of compound diluted 1:3 in enzyme reaction buffer and 20% dimethyl sulfoxide (DMSO). The top concentration for all compounds is 36 μM. Wells 6 and 12 can serve as the no compound (DMSO only) and high compound controls.
An mTOR substrate solution can prepared in enzyme reaction buffer containing 1600 nM green fluorescent protein tagged eukaryotic translation initiation factor 4E binding protein 1 (GFP-4E-BP1) (Invitrogen, Carlsbad, Calif.) and 28 uM adenosine triphosphate (ATP) (Calbiochem, Gibbstown, N.J.).
mTOR enzyme (Invitrogen, Carlsbad, Calif.) can be diluted in enzyme reaction buffer to a working concentration of 100 ng/mL.
The enzyme assay can be run in 384 well low volume assay plates (Corning, Corning, N.Y.). 2.5 uL of substrate solution containing GFP-4E-BP1 and ATP can be added to appropriate wells in the assay plate followed by 2.5 μL of compound dilutions. 5 μL of appropriately diluted mTOR enzyme can be added and the reaction allowed to proceed for 1 hour at room temperature. Final reagent concentrations in the enzyme assay are 50 ng/mL mTOR, 400 nM GFP-4E-BP1, and 7 μM ATP.
The enzyme assay can be terminated upon the addition of 10 μL of 20 mM EDTA and 4 nM Tb-labeled anti-phospho-4E-BP1 [T46] antibody (Invitrogen, Carlsbad, Calif.). The assay plate can then be incubated at room temperature for 1 hour and results read on a Tecan Safire II plate reader (Tecan, Männedorf, Switzerland).

PI3Kα [1] = biological target: T2, PI3Kα (Homo sapiens, UniProt P42336); test: In vitro PI3K AlphaScreen assay; format: biochemical; settings: average if run more than once
T2 construct: Full length p110 subunits of PI3K α, β and δ, N-terminally labeled with polyHis tag; polyHis (N); made in house; host or cells: Sf9 insect cells (baculovirus)
Method: In Vitro PI3K Alphascreen® Assay
The PI3K AlphaScreen® assay (PerkinElmer, Waltham, Mass.) measures the activity of a panel of four phosphoinositide 3-kinases: PI3Kα, PI3Kβ, PI3Kγ, and PI3Kδ. Each of these enzymes phosphorylates the 3′-hydroxyl group on phosphatidylinositiol (4,5)-bisphosphate (PIP2) to produce phosphatidylinositol (3,4,5)-trisphosphate (PIP3). This phosphorylation activity is measured using a GST-tagged PIP3 binding protein (Echelon Biosciences, Salt Lake City, Utah), an anti-GST-tagged Acceptor bead, and streptavidin-Donor bead. […] In the absence of this interaction, proximity of the Donor and Acceptor beads is decreased, producing a loss of luminescent signal which is inversely proportional to PI3K activity.
The enzyme reaction buffer is made using sterile water (Baxter, Deerfield, Ill.) and 50 mM Tris HCl pH 7, 14 mM MgCl2, 2 mM sodium cholate, and 100 mM NaCl. 2 mM DTT is added fresh the day of the experiment. The AlphaScreen® reaction buffer is made using sterile water and 10 mM Tris HCl pH 7.5, 150 mM NaCl, 0.10% Tween 20, and 30 mM EDTA. 1 mM DTT is added fresh the day of the experiment.
The source plates for this assay are 384-well Greiner clear polypropylene plates containing test compounds at 5mM and diluted 1:2 over 22 points. […] Source plates are replicated into 384-well Optiplates (PerkinElmer, Waltham, Mass.), 0.5 μL/well, to make assay-ready plates.
The different PI3K isoforms are each diluted in enzyme reaction buffer to 2× working solutions. […] Two different 2× substrate solutions are made in enzyme reaction buffer. In one solution, PI(4,5)P2 (Echelon Biosciences, Salt Lake City, Utah) is diluted to 10 μM and ATP is diluted to 20 μM. This solution is used in the assays testing PI3Kα and PI3Kβ. In a second solution, PI(4,5)P2 is diluted to 10 μM and ATP is diluted to 8 μM. This solution used in the assays testing PI3Kγ and PI3Kδ.
The AlphaScreen® reaction solutions are made using beads from the anti-GST AlphaScreen® kit (PerkinElmer, Waltham, Mass.). Two solutions are made in Alphascreen reaction buffer to 4× working concentrations. In one solution, biotinylated-IP4 (Echelon Biosciences, Salt Lake City, Utah) is diluted to 40 nM and streptavadin-Donor Beads are diluted to 80 μg/mL. In the second solution, PIP3-binding protein (Echelon Biosciences, Salt Lake City, Utah) is diluted to 40 nM and anti-GST-Acceptor Beads are diluted to 80 μg/mL. 10 μL/well of enzyme reaction buffer is added to Column 24 of the assay ready plates in place of enzyme. This is done for plates in the PI3Kα, β, and 67 assays.
Using a 384-well dispensing Multidrop (Titertek, Huntsville, Ala.), 10 μL/well of 2× enzyme (PI3Kα, β, δ) is added to Columns 1-23 of the appropriate assay ready plates (for PI3Kγ 10 μL is added to Columns 1-24). 10 μL/well of the appropriate substrate solution (the solution with 20 μM ATP for PI3Kα and β assays, and the solution with 8 μM ATP for PI3Kγ and δ assays) is then added to Columns 1-24 of the plates. Plates are then incubated at room temperature for 20 minutes.
In the dark, 10 μL/well of the Donor Bead solution is added to Columns 1-24 of the plates to quench the enzyme reaction. The plates are incubated at room temperature for 30 minutes. Still in the dark, 10 μL/well of the Acceptor Bead solution is also added to Columns 1-24 of the plates. The plates are then incubated in the dark for 1.5 hours. The plates are read on an Envision Multilabel Plate Reader (PerkinElmer, Waltham, Mass.) with a 680 nm excitation filter and a 520-620 nm emission filter.

PI3Kβ = biological target: T3, PI3Kβ (Homo sapiens, UniProt P42338); test: In vitro PI3 kinase enzyme assay (PI3K ATP loss), beta; format: biochemical; settings: average if run more than once
T3 construct: Full length p110 subunits of PI3K α, β and δ, N-terminally labeled with polyHis tag; polyHis (N); made in house; host or cells: Sf9 insect cells (baculovirus)
Method: (§1) Full length p110 subunits of PI3K α, β and δ, N-terminally labeled with polyHis tag, can be co-expressed with p85 with Baculo virus expression vectors in sf9 insect cells. P110/p85 heterodimers can be purified by sequential Ni-NTA, Q-HP, Superdex-100 chromatography. Purified α, β and δ isozymes can be stored at −20° C. in 20 mM Tris, pH 8, 0.2M NaCl, 50% glycerol, 5 mM DTT, 2 mM Na cholate. […] The γ isozyme can be purified by sequential Ni-NTA, Superdex-200, Q-HP chromatography. The γ isozyme can be stored frozen at −80° C. in NaH2PO4, pH 8, 0.2M NaCl, 1% ethylene glycol, 2 mM β-mercaptoethanol.
(§2) In Vitro PI3 Kinase Enzyme Assays (PI3K Atploss)
(§3) PI3K enzyme assays (alpha, beta, delta and gamma) can be performed in 25 μL with the above final concentrations of components in white polyproplyene plates. Phosphatidyl inositol phosphoacceptor, PtdIns(4,5)P2 (eg. P4508) can be obtained from Echelon Biosciences, Salt Lake City, Utah. […] Test compounds can be dissolved in DMSO and diluted with three-fold serial dilutions. The compound in DMSO (1 μL) may be added per test well, and the inhibition relative to reactions containing no compound, with and without enzyme can be determined After assay incubation at RT, the reaction can be stopped and residual ATP can be determined by addition of an equal volume of a commercial ATP bioluminescence kit (Perkin Elmer EasyLite, Perkin Elmer, Waltham, Mass.) according to the manufacturer's instructions, and detected using an Analyst GT luminometer.

PI3Kα [2] = biological target: T2, PI3Kα; test: In vitro PI3 kinase enzyme assay (PI3K ATP loss), alpha; format: biochemical; settings: average if run more than once; read-out: ATP Loss (PBKα) IC50 μM (Avg)
Method: as §1, §2, §3

[3] = tested on: phosphorylation of Akt at Ser473; test: Cell-based phospho-Akt Ser473 assay (HCT116 cell); settings: HCT 116 human colon carcinoma cells, IGF-1 stimulated; average
From the text: Cell-Based Phospho-Akt Ser473 Assay (HCT116 Cell)
This assay determines the ability of a compound to inhibit the phosphorylation of […] in Akt using a MSD based sandwich immunoassay (Meso Scale Detection, Meso Scale Discovery (MSD), Gaithersburg, Md.). HCT 116 human colon carcinoma cell lines can be grown in McCoy's 5A growth medium (GIBCO, Carlsbad, Calif.) containing 10% FBS (GIBCO, Carlsbad, Calif.) and X1 Penicillin-streptomycin-glutamine (GIBCO, Carlsbad, Calif.). Prior to the assay, cells can be detached from the culture flask with trypsin, and re-suspended in complete media to give a final concentration of 1.6×10^5 cells per mL. Aliquots (100 μl) of the HCT116 cell suspension can be seeded into each well of a 96 well tissue culture plate to give a final density of 16,000 cells per well. Cells can then be incubated overnight at 37° C.
The following day the cells can be treated with serially diluted test compounds and incubated for 2 hours at 37° C. The culture media on the HCT 116 cells can be replaced with 189 μL McCoys media, supplemented with 0.1% BSA (ICN Biomedicals, Inc., Costa Mesa, Calif.). Compounds can be prepared as either 10 mM or 0.5 mM stock solutions in DMSO, and serially diluted 3 fold in a 10-point dose-response curve to give final concentrations that are 200-fold greater than the desired final test concentration. Aliquots (1 μL) of serially-diluted compounds can be transferred to 96 well tissue culture plates containing the HCT 116 cells. […] As a maximum response control, wells can contain 0.5% DMSO in place of compound. The plates can be mixed at 700 rpm for 2 min to ensure even distribution of the test compound and incubated for 2 hours at 37° C. Cells can then be stimulated with insulin-like growth factor 1 (Sigma, St Louis, Mo.) at final concentration of 100 ng/ml for 15 minutes at 37° C. The media can then be removed and the cells treated with 80 μL cell-lysis buffer (MSD) containing a cocktail of protease and phosphatase inhibitors for one hour at 4° C.
25 μL Cell lysate can then be transferred to pre-blocked MSD assay plates pre-coated with a capture antibody specific for Akt, and the plates can be incubated for 2 hours at room temperature. The cell lysates can then be removed and plates can then be washed four times with 200 μl per well of Tris wash buffer (500 mM Tris, PH 7.5, 1.5 M NaCl, 0.2% Tween-20). Subsequently cells can be incubated for 1 hour at room temperature with a 25 μL solution containing the detection antibody, anti-phospho Akt (Ser 473) labeled with an electrochemiluminescent compound (Meso Scale Discovery SULPHO-TAG™ label, MSD, Gaithersburg, Md.). The detection antibody can be removed and plates can then be washed four times with 200 μL per well of Tris wash buffer. An aliquot of 150 μL of diluted MSD read buffer can then be applied to each well, and the electrochemiluminescent signal can be measured using a MSD SECTOR™ plate reader (Meso Scale Discovery, Gaithersburg, Md.). This instrument measures the intensity of emitted light to determine a quantitative measure of phosphorylated Akt in each well. The dose-response data obtained with each compound can be analyzed and the IC50 inhibition of Akt phosphorylation at Ser473 can be calculated.
Activity data for the compounds tested in the PI3K cell based Akt assay is provided in Table 1 under the column heading HCT116 Cell.

T2 sequence (P42336 whole entry): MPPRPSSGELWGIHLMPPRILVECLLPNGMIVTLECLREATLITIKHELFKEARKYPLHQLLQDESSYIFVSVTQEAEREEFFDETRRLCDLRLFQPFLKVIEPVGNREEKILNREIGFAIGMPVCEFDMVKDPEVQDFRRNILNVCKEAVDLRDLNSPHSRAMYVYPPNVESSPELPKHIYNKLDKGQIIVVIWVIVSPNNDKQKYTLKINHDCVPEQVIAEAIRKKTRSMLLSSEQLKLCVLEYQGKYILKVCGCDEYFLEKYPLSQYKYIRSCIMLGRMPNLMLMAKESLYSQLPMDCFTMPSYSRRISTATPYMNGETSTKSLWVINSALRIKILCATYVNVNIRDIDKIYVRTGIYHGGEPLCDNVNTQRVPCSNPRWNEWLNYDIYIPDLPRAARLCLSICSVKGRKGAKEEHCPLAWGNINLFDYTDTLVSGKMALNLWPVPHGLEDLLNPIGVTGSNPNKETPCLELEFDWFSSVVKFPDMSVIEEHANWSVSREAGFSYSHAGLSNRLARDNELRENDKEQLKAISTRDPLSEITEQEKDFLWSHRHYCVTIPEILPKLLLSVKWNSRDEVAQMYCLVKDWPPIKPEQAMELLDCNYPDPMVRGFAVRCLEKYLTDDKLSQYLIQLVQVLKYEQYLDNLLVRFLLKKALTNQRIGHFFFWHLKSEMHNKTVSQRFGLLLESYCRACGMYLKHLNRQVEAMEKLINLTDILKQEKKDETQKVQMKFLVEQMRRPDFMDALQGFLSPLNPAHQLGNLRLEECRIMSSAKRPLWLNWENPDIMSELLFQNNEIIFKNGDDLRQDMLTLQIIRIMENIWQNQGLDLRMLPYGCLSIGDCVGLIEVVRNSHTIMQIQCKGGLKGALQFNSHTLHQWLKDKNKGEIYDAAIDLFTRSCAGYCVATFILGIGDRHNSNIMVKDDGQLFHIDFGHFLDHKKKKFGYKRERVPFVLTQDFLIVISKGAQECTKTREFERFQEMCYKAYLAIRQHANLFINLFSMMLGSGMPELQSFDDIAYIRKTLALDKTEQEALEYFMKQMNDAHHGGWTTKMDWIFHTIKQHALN
T2 sequence (P27986 whole entry partner): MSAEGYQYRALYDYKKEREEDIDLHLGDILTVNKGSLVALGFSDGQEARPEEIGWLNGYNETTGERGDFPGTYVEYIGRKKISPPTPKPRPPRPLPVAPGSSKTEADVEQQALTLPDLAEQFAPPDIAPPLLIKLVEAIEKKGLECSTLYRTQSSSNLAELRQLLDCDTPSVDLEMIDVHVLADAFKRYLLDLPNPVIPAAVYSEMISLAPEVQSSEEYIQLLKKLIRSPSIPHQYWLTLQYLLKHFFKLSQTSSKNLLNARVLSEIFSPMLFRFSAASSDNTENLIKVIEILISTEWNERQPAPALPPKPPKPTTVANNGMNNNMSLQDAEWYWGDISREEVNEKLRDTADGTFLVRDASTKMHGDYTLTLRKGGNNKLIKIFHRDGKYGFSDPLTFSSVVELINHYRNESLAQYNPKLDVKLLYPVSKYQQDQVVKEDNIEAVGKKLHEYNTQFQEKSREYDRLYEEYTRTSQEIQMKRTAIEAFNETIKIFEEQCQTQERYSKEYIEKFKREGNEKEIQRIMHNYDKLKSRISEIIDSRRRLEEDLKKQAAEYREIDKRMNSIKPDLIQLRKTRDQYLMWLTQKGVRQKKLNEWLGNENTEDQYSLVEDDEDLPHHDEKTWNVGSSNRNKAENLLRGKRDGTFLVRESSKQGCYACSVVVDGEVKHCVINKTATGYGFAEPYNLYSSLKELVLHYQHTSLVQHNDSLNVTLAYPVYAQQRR
T3 sequence (P42338 whole entry): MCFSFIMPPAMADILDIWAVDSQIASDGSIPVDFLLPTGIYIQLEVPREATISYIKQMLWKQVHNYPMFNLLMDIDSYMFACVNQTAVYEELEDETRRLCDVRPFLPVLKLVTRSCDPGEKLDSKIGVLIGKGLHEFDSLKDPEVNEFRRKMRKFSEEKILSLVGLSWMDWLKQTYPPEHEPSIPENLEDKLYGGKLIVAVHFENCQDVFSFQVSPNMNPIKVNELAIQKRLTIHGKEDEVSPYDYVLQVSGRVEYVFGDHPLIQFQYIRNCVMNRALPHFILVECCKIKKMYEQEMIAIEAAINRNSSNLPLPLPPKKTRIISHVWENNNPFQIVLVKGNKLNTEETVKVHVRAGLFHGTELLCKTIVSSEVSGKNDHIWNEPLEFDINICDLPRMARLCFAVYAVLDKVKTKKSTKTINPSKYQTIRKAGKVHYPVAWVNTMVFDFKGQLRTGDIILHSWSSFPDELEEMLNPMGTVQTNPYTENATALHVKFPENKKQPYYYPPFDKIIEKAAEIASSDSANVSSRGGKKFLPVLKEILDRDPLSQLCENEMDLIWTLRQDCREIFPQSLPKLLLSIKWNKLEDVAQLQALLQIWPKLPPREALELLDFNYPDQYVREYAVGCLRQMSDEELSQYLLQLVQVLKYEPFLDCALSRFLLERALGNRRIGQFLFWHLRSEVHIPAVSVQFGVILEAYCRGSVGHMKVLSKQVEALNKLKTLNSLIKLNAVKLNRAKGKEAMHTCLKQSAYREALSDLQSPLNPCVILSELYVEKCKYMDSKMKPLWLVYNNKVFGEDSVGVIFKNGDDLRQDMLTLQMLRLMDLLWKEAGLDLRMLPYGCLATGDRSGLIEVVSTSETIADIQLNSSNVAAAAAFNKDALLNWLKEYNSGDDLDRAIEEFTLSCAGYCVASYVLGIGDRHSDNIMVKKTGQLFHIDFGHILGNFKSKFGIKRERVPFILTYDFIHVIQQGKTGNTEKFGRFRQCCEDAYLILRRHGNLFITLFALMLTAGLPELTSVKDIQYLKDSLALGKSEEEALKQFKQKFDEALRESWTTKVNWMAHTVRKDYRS
T3 sequence (P27986 whole entry partner): as the sequence (P27986 whole entry partner) above
T1 sequence (P42345 1360-2549 limits assumed): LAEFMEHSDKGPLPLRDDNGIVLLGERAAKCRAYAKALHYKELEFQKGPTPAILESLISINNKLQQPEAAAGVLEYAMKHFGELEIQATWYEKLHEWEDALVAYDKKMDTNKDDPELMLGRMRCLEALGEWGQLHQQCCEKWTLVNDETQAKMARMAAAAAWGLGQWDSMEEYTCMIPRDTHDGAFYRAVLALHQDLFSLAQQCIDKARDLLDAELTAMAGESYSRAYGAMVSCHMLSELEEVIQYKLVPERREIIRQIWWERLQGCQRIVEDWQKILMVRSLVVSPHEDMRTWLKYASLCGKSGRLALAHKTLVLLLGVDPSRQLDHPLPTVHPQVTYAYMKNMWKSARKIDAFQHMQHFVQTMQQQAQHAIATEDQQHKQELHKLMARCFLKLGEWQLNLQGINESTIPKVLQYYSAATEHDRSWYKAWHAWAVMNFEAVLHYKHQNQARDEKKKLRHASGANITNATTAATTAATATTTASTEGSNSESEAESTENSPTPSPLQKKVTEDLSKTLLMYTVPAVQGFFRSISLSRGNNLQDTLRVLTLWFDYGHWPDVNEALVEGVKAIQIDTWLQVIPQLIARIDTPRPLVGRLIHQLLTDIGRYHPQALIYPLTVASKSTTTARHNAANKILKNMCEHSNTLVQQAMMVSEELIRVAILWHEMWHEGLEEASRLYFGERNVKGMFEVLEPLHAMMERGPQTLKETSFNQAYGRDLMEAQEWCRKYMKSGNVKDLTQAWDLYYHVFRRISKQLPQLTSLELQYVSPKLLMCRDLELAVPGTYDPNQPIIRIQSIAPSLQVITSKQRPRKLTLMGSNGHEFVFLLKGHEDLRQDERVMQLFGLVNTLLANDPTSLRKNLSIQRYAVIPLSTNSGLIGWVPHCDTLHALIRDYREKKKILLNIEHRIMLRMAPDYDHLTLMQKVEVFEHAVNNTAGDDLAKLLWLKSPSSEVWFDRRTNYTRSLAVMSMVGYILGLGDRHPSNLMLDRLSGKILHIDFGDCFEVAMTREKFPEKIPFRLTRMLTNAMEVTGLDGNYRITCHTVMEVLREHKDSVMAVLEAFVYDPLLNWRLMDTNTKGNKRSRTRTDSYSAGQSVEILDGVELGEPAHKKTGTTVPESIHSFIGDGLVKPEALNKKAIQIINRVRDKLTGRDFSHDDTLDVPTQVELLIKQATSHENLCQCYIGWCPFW

| SMILES | IC50 (mTOR) [µM] | Ki (PI3Kα [1]) [µM] | IC50 (PI3Kβ) [µM] | IC50 (PI3Kα [2]) [µM] | IC50 [3] [µM] |
| --- | --- | --- | --- | --- | --- |
| COCC(C)Nc1ccnc2ccc(-c3cnc(Cl)c(NS(=O)(=O)c4ccc(F)cc4)c3)cc12 (stereo not drawn) [Example 99, N-(2-chloro-5-(4-((2-methoxy-1-methylethyl)amino)-6-quinolinyl)-3-pyridinyl)-4-fluorobenzenesulfonamide] | 2.39 | 0.121 | – | – | – |
| O=C1COc2ccc(-c3cnc(Cl)c(NS(=O)(=O)c4ccc(F)cc4)c3)cc2N1 [Example 129, N-(2-Chloro-5-(3-oxo-3,4-dihydro-2H-benzo[b][1,4]oxazin-6-yl)pyridin-3-yl)-4-fluorobenzenesulfonamide] | – | 0.0858 | – | – | – |
| COc1cnc2ccc(-c3cnc(Cl)c(NS(=O)(=O)c4ccc(F)cc4)c3)cc2c1 [Example 4, N-(2-chloro-5-(3-methoxy-6-quinolinyl)-3-pyridinyl)-4-fluorobenzenesulfonamide] | – | – | 0.0253 | 0.0162 | 0.186 |
| COc1ccc(S(=O)(=O)Nc2cc(-c3ccc4nccc(N(C)C)c4c3)cnc2Cl)cc1 [Example 49, N-(2-chloro-5-(4-(dimethylamino)-6-quinolinyl)-3-pyridinyl)-4-methoxybenzenesulfonamide] | – | – | 0.0151 | 0.0074 | 0.273 |
| O=S(=O)(Nc1cc(-c2ccc3ncccc3c2)cnc1Cl)c1ccc(F)cc1 [Example 7, N-(2-chloro-5-(6-quinolinyl)-3-pyridinyl)-4-fluorobenzenesulfonamide] | – | – | 0.0277 | 0.0099 | 1.3 |
| CS(=O)(=O)Nc1cc(-c2ccc3nccc(Cl)c3c2)cnc1Cl [Example 9, N-(2-chloro-5-(4-chloro-6-quinolinyl)-3-pyridinyl)methanesulfonamide] | – | – | 0.052 | 0.0142 | 2.06 |
| CC(c1ccccc1)N1CCN(c2ccnc3ccc(-c4cnc(Cl)c(NS(=O)(=O)c5ccc(F)cc5)c4)cc23)CC1 (stereo not drawn) [Example 29, N-(2-chloro-5-(4-(4-(1-phenylethyl)-1-piperazinyl)-6-quinolinyl)-3-pyridinyl)-4-fluorobenzenesulfonamide] | – | – | 0.0449 | 0.0069 | 0.345 |
| O=S(=O)(Nc1cc(-c2ccc3ncc(N4CCNCC4)nc3c2)cnc1Cl)c1ccc(F)cc1 [Example 72, N-(2-chloro-5-(3-(1-piperazinyl)-6-quinoxalinyl)-3-pyridinyl)-4-fluorobenzenesulfonamide] | – | – | 0.01 | 0.0049 | 0.0168 |
| CC(=O)N1CCN(c2cnc3ccc(-c4cnc(Cl)c(NS(=O)(=O)c5ccc(F)cc5)c4)cc3n2)CC1 [Example 56, N-(5-(3-(4-acetyl-1-piperazinyl)-6-quinoxalinyl)-2-chloro-3-pyridinyl)-4-fluorobenzenesulfonamide] | – | – | 0.0318 | 0.0057 | 0.0236 |
| COc1ccc(S(=O)(=O)Nc2cc(-c3ccc4ncccc4c3)cnc2Cl)cc1 [Example 47, N-(2-chloro-5-(6-quinolinyl)-3-pyridinyl)-4-methoxybenzenesulfonamide] | – | – | 0.0249 | 0.0417 | 0.526 |
| O=S(=O)(Nc1cc(-c2ccc3nccc(N4CCOCC4)c3c2)cnc1Cl)c1ccccc1Cl [Example 33, 2-chloro-N-(2-chloro-5-(4-(4-morpholinyl)-6-quinolinyl)-3-pyridinyl)benzenesulfonamide] | – | – | 0.0219 | 0.0041 | 0.0063 |
| COc1cnc2ccc(-c3cnc(Cl)c(NS(C)(=O)=O)c3)cc2c1 [Example 10, N-(2-chloro-5-(3-methoxy-6-quinolinyl)-3-pyridinyl)methanesulfonamide] | – | – | 0.166 | 0.0424 | 0.348 |
| O=S(=O)(Nc1cc(-c2ccc3nccc(N4CCOCC4)c3c2)cnc1Cl)c1c(Cl)cccc1Cl [Example 34, 2,6-dichloro-N-(2-chloro-5-(4-(4-morpholinyl)-6-quinolinyl)-3-pyridinyl)benzenesulfonamide] | – | – | 0.0359 | 0.0065 | 0.0376 |
| CC(C)(C)OC(=O)NCCOc1ccnc2ccc(-c3cnc(Cl)c(NS(=O)(=O)c4ccc(F)cc4)c3)cc12 [Example 3, tert-butyl(2-((6-(6-chloro-5-(((4-fluorophenyl)sulfonyl)amino)-3-pyridinyl)-4-quinolinyl)oxy)ethyl)carbamate] | – | – | 0.682 | 0.0678 | 1.66 |
| COc1ccnc2ccc(-c3cnc(Cl)c(NS(=O)(=O)c4ccc(F)cc4)c3)cc12 [Example 8, N-(2-chloro-5-(4-methoxy-6-quinolinyl)-3-pyridinyl)-4-fluorobenzenesulfonamide] | – | – | 0.0147 | 0.0127 | 0.222 |
| O=S(=O)(Nc1cc(-c2ccc3ncc(NCC4CCCNC4)nc3c2)cnc1Cl)c1ccc(F)cc1 (stereo not drawn) [Example 74, N-(2-chloro-5-(3-((3-piperidinylmethyl)amino)-6-quinoxalinyl)-3-pyridinyl)-4-fluorobenzenesulfonamide] | – | – | 0.0463 | 0.0192 | 2.63 |
| COC1CCCN(c2cnc3ccc(-c4cnc(Cl)c(NS(=O)(=O)c5ccc(F)cc5)c4)cc3n2)C1 (stereo not drawn) [Example 66] | – | – | 0.03 | 0.0027 | 0.0405 |
| CN(CC#N)c1cnc2ccc(-c3cnc(Cl)c(NS(=O)(=O)c4ccc(F)cc4)c3)cc2n1 [Example 71, N-(2-chloro-5-(3-((cyanomethyl)(methyl)amino)-6-quinoxalinyl)-3-pyridinyl)-4-fluorobenzenesulfonamide] | – | – | 0.0934 | 0.0188 | 0.0893 |
| COc1ccc(S(=O)(=O)Nc2cc(-c3ccc4nccc(N5CCC(OC)CC5)c4c3)cnc2Cl)cc1 [Example 50, N-(2-chloro-5-(4-(4-methoxy-1-piperidinyl)-6-quinolinyl)-3-pyridinyl)-4-methoxybenzenesulfonamide] | – | – | 0.0366 | 0.003 | 0.107 |
